Key:
[1] = Solubility of representative compounds in various solvent systems; format: physicochemical
Procedure: The solubility of representative compounds of this invention in various solvent systems was determined. The solvents included ethanol, propylene glycol, SLS, Tween 80™ and combinations thereof.

[2] = test system: ear weight gain produced by multiple doses of TPA in mice; assay: Chronic (multiple dose) TPA mouse ear inflammation assay, ear weight gain; format: in vivo, mouse (female CD-1); conditions: for % Inhibition of Ear Weight Gain, Actual / % Inhibition of Ear Weight Gain, Relative to Hydrocortisone (HCV) = 100%: multiple doses of TPA; for % Inhibition of Ear Weight Gain, Relative to Hydrocortisone (HCV) = 100%: head prints 1.25 eg/ear
Procedure: The acute skin inflammation model described in Example 1, tests the ability of a compound to prevent inflammation and thus must be applied prophylactically. Most clinical situations, however, are present as chronic inflammatory conditions. […] The effects of the compounds of the present invention and Salifluor on chronically inflamed skin was measured in the mouse ear model that utilizes multiple TPA doses over a 10-day period to produce the inflammatory response.
The assay used female CD-1 mice (7-9 weeks of age). Following a 2-week quarantine, mice were randomly assigned to test groups (5 mice/groups). TPA (10 uL of 0.01 TPA in acetone) was administered to both the inner and outer surface of each ear (2μg/ear) on day 0,2,4,7, and 9 on protocol. On Day 7,8 and 9, two applications of test article were applied to each ear 2 and 4 hours after dosing with TPA. The test articles were administered in 10 uL aliquots to both the inner and outer surface of each ear (20 μl total/dose). […] Hydrocortisone-17-valerate (HCV, 20μg/ear) was employed as a positive control. Mice were sacrificed at Day 10 on protocol and uniform punch biopsies (approximately 8 mm dia.) were taken from each ear. While on protocol, dermal irritation was scored semiquantitatively at Day 1,3,5,8, and 10.
Inhibition of TPA stimulated increased ear weight was used as an initial measure of efficacy for all of the agents tested. One biopsy from each mouse was also quick frozen and stored at -70° C. for later assay of myleoperoxidase, an enzyme associated with infiltrating PMN, or other measure of efficacy. The remaining biopsy from each mouse treated with Trifluorosal or HCV was fixed in formalin and processed for histopathologic evaluation, including measurement of cellular infiltration (PMNs, endothelial cells, macrophages) and epidermal thickness at 20 random sites along the length of the specimen.
Initially, a dose-response curve for multiple doses of TPA to produce mouse ear weight gain was generated in order to determine the concentration of TPA to be employed in the inhibition studies. […] Another major difference between the multiple TPA dose (or chronic assay for inflammation) and the single TPA dose (or acute assay for inflammation) in the mouse ear is sensitivity to Non-steroidal antiinflammatory drugs (NSAIDs) and antihistamines.

[3] = prior art compound; cited from earlier work
[4] = prior art compound; cited from earlier work; remark: listed apart in the source
[5] = in vivo; cited from earlier work
[6] = Stability in solution by HPLC (TMF-10, 40° C.); format: physicochemical; conditions: 0.3 mg/ml in 30% ethanolic water, four weeks
Procedure: An analytical method to determine concentration and stability of some representative compounds of this invention in solution employing high pressure liquid chromatography (HPLC) was developed and validated. Both isocratic and gradient mobile phases of acetonitrile, water and methanol were investigated on a C-18 silica reverse solid phase column (Zorbax). Results were obtained using a 12 minute gradient of 80% to 100% methanol/water at a flow rate of 1.5 ml/minutes. Detection was carried out by measuring absorbance at 280 nm. Under these conditions TMF-10 and TMC-l0 each produced symmetrical peaks with retention times of 7.5 and 3.0 minutes, respectively. TMF-8 and TMF-12 had retention times of 4 and 9 minutes respectively. […] The lowest detectable quantity measured for all three compounds was 5.0 ng.
A 0.3 mg/ml solution of TMF-10 in 30% ethanolic water was maintained at 40° C. for several weeks. At various times samples were analyzed for decomposition employing the HPLC method described in Example 2.

[7] = Single dose oral tolerance in rats; format: in vivo, rat (male weaning Sprague-Dawley); conditions: single dose 2.5 or 0.75 g/kg in 5% CMC, 7 days
Procedure: To test for tolerance of the administered compounds, male weaning Sprague-Dawley rats were fed in a single dose of 2.5 or 0.75 g/kg of TMF-12, TMF-10, TMC-10 or TPC-10 in 5% carboxymethyl cellulose (CMC) or CMC alone. […] At completion of the 7 day observation period, necropsies were performed on all animals.

[8] = aqueous buffer, pH 10 K-buffer @ 35° C.
[9] = aqueous buffer, pH 10 Na-buffer @ 22° C.
[10] = organic solvent or mixture, Ethanol @ 19° C.
[11] = organic solvent or mixture, Propylene Glycol @ 20° C.

CCCCCCCC(=O)c1ccc(O)c(C(=O)Nc2cccc(C(F)(F)F)c2)c1 [Salifluor, reference compound]
solubility ([1]; +1% sls): 230 µg/mL
solubility ([1]; +2% sls): 290 µg/mL
solubility ([1]; +4% sls): 380 µg/mL
solubility [1, 8]: 1.14 µg/mL
solubility [1, 9]: 3.91 µg/mL
solubility [1, 10]: 13000 µg/mL
solubility [1, 11]: 550 µg/mL
% Inhibition of Ear Weight Gain, Actual [2]: 0%
% Inhibition of Ear Weight Gain, Relative to Hydrocortisone (HCV) = 100% [2]: 0%
Solubility in aqueous solutions at neutral pH [3]: relatively insoluble in aqueous solutions at neutral pH
pKa [4]: 6.1
Anti-inflammatory activity in clinical trials [5]: have been reported to have anti-inflammatory activity in clinical trials

CCCCCCCCCCS(=O)(=O)c1ccc(O)c(C(=O)Nc2cccc(C(F)(F)F)c2)c1 [TMF-10]
solubility ([1]; +0.5% tween 80): 760 µg/mL
solubility ([1]; +1% sls): 920 µg/mL
solubility ([1]; +1.5% tween 80): 2020 µg/mL
solubility ([1]; +2% SLS + 0.5% Tween 80): 1350 µg/mL
solubility ([1]; +2% SLS + 1.0% Tween 80): 1910 µg/mL
solubility ([1]; +2% SLS + 2.0% Tween 80): 2870 µg/mL
solubility ([1]; +2% sls): 1280 µg/mL
solubility ([1]; +3.0% tween 80): 4130 µg/mL
solubility ([1]; +4% sls): 2080 µg/mL
solubility [1, 8]: < 0.1 µg/mL
solubility [1, 9]: 1.89 µg/mL
solubility [1, 10]: 44700 µg/mL
solubility [1, 11]: 1700 µg/mL
solubility ([1]; ph 10 na-buffer +0.5% sls, pH 10 Na-buffer @ 22° C. +0.5% SLS): 370 µg/mL
Decomposition in solution [6]: no decomposition of TMF-10 was detected
Inhibition of ear weight gain ([2]; 5.0 mg/ear (printed 'mc/ear' for Trifluorosal)): 69.8%
Activity in chronic assay (in words) ([2]; 1.25-5 mg/ear, remaining experiments): demonstrated consistent activity
Inhibition of ear weight gain ([2]; 2.5 or 1.25 mg/ear (two values printed for three doses)): 0.0%
% Inhibition of Ear Weight Gain, Actual [2]: 54.7%
% Inhibition of Ear Weight Gain, Relative to Hydrocortisone (HCV) = 100% [2]: 59.9%
Illness or deaths [7]: No illness or deaths occurred

— patent US6117859A, “Method of relieving chronic inflammation by using 5-alkylsulfonylsalicylanilides” (The Research Foundation of State University of New York, priority 1999, dated 2000)
